Measurements taken from the supplement of paper PMC10307832.

Legend:
Assay in all cases: relative viability (nuclei count vs DMSO), 5 days (fraction); higher = more cells survive
[1] = compound: CN(C)C/C=C/C(=O)Nc1cc2c(Nc3ccc(F)c(Cl)c3)ncnc2cc1O[C@H]1CCOC1 [Afatinib] + CC1(C)CCC(c2ccc(Cl)cc2)=C(CN2CCN(c3ccc(C(=O)NS(=O)(=O)c4ccc(N[C@H](CCN5CCOCC5)CSc5ccccc5)c(S(=O)(=O)C(F)(F)F)c4)cc3)CC2)C1 [Navitoclax] (partner 0.5 µM)
Method in brief: (§1)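 One day after seeding in 1536-well plates, lung cancer cell lines were dosed by pin tool. Dosing was either single-drug or a fixed anchor-drug dose plus five library-drug doses (not always all listed) in √10 steps. After 5 days, nuclei were stained in one fix-and-stain step and counted on 4× images, and relative viability is the nuclei count of treated wells over that of vehicle wells, given as the median of duplicate plates.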

[2] = compound: CN(C)C/C=C/C(=O)Nc1cc2c(Nc3ccc(F)c(Cl)c3)ncnc2cc1O[C@H]1CCOC1 [Afatinib] + O=C(CCCCCCC(=O)Nc1ccccc1)NO [Vorinostat] (partner 1 µM)
Method in brief: as §1

[3] = compound: CN(C)C/C=C/C(=O)Nc1cc2c(Nc3ccc(F)c(Cl)c3)ncnc2cc1O[C@H]1CCOC1 [Afatinib] + C[C@@H](Oc1cc(-c2cnn(C3CCNCC3)c2)cnc1N)c1c(Cl)ccc(F)c1Cl [Crizotinib] (partner 1 µM)
Method in brief: as §1

[4] = compound: CN(C)C/C=C/C(=O)Nc1cc2c(Nc3ccc(F)c(Cl)c3)ncnc2cc1O[C@H]1CCOC1 [Afatinib] + Cc1nc(Nc2ncc(C(=O)Nc3c(C)cccc3Cl)s2)cc(N2CCN(CCO)CC2)n1 [Dasatinib] (partner 0.075 µM)
Method in brief: as §1

Cell Line | relative viability ([1]; first compound 0.005 µM) | relative viability ([1]; first compound 0.01581 µM) | relative viability ([1]; first compound 0.05 µM) | relative viability ([1]; first compound 0.1581 µM) | relative viability ([1]; first compound 0.5 µM) | relative viability ([2]; first compound 0.005 µM) | relative viability ([2]; first compound 0.01581 µM) | relative viability ([2]; first compound 0.05 µM) | relative viability ([2]; first compound 0.1581 µM) | relative viability ([2]; first compound 0.5 µM) | relative viability ([3]; first compound 0.005 µM) | relative viability ([3]; first compound 0.01581 µM) | relative viability ([3]; first compound 0.05 µM) | relative viability ([3]; first compound 0.1581 µM) | relative viability ([3]; first compound 0.5 µM) | relative viability ([4]; first compound 0.005 µM) | relative viability ([4]; first compound 0.01581 µM) | relative viability ([4]; first compound 0.05 µM) | relative viability ([4]; first compound 0.1581 µM) | relative viability ([4]; first compound 0.5 µM)
LCLC-97TM1 | 0.383 | 0.546 | 0.411 | 0.344 | 0.455 | 0.793 | 0.784 | 0.861 | 0.628 | 0.646 | 0.491 | 0.337 | 0.329 | 0.242 | 0.308 | 0.926 | 0.766 | 0.812 | 0.709 | 0.842
HCC-15 | 0.682 | 0.719 | 0.745 | 0.684 | 0.686 | 0.904 | 0.92 | 0.816 | 0.785 | 0.887 | 0.842 | 0.904 | 0.804 | 0.837 | 0.866 | 0.609 | 0.646 | 0.617 | 0.609 | 0.642
NCI-H647 | 1.09 | 0.951 | 1.16 | 1.13 | 1.39 | 0.493 | 0.513 | 0.595 | 0.523 | 0.524 | 1.26 | 1.13 | 1.01 | 1.04 | 1.19 | 0.24 | 0.141 | 0.201 | 0.192 | 0.172
SW 1573 | 0.878 | 1.08 | 1.13 | 0.819 | 0.943 | 0.696 | 0.682 | 1.01 | 0.692 | 0.777 | 0.963 | 0.885 | 1.01 | 0.683 | 0.75 | 0.355 | 0.438 | 0.528 | 0.475 | 0.417
NCI-H1651 | 1.18 | 0.989 | 1.08 | 0.949 | 0.941 | 0.628 | 0.521 | 0.512 | 0.575 | 0.539 | 0.911 | 0.85 | 0.817 | 0.855 | 0.82 | 0.483 | 0.426 | 0.407 | 0.386 | 0.381
NCI-H2023 | 1.01 | 1.01 | 0.876 | 0.792 | 0.854 | 0.445 | 0.566 | 0.592 | 0.556 | 0.549 | 0.576 | 0.487 | 0.407 | 0.402 | 0.487 | 0.61 | 0.498 | 0.492 | 0.445 | 0.546
COR-L 105 | 0.444 | 0.373 | 0.315 | 0.293 | 0.26 | 0.667 | 0.386 | 0.47 | 0.336 | 0.386 | 0.618 | 0.285 | 0.304 | 0.221 | 0.216 | 0.206 | 0.119 | 0.142 | 0.137 | 0.148
NCI-H1734 | 1.01 | 0.877 | 0.885 | 0.78 | 0.781 | 0.795 | 0.826 | 0.874 | 0.779 | 0.831 | 0.82 | 0.687 | 0.652 | 0.568 | 0.642 | 0.482 | 0.386 | 0.497 | 0.491 | 0.444
NCI-H3122 | 1.02 | 0.976 | 1.05 | 0.91 | 1.03 | 1.1 | 1 | 1.06 | 0.956 | 0.944 | 0.257 | 0.212 | 0.208 | 0.209 | 0.299 | 0.95 | 0.778 | 0.675 | 0.739 | 0.553
CAL-12T | 1.32 | 1.12 | 1.47 |  | 0.648 | 0.727 | 0.647 | 0.552 | 0.364 | 0.396 | 1.06 | 0.629 | 0.64 |  | 0.357 | 0.261 | 0.236 | 0.193 | 0.189 | 0.194
HCC-78 | 0.776 | 0.76 | 0.62 | 0.636 | 0.679 | 0.433 | 0.404 | 0.422 | 0.345 | 0.376 | 0.308 | 0.279 | 0.245 | 0.252 | 0.221 | 0.445 | 0.341 | 0.366 | 0.29 | 0.331
NCI-H2085 | 0.985 | 1.03 | 0.994 | 0.808 | 0.936 | 0.746 | 0.684 | 0.66 | 0.623 | 0.682 | 0.925 | 0.657 | 0.763 | 0.66 | 0.778 | 0.238 | 0.263 | 0.22 | 0.199 | 0.212
